# From US12043632B2, “6-heteroaryloxy benzimidazoles and azabenzimidazoles as JAK2 inhibitors” (Ajax Therapeutics, Inc., priority 2020, dated 2024)
# Molecular target: T1, JAK2 (JH1domain-catalytic, Y1007F,Y1008F) kinase (Homo sapiens, UniProt O60674, Y1007F/Y1008F)
# T1 construct: JAK2 (JH1domain-catalytic, Y1007F,Y1008F) kinase was expressed as N-terminal fusion; made in house; host or cells: transiently transfected HEK293 cells
# Assay: JAK2 JH1 Domain Binding Assay
# Details: qPCR readout
# T1 sequence (O60674 849-1124 Y1007F/Y1008F limits assumed): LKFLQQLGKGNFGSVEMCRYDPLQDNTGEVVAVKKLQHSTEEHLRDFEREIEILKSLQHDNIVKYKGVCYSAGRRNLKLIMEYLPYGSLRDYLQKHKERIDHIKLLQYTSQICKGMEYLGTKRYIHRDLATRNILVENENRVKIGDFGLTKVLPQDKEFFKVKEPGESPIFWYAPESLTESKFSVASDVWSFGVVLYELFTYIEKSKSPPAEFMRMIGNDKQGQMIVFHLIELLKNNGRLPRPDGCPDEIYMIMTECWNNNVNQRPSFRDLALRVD
row,Structure (SMILES),Kd
1,"Cn1c(Nc2cc(C(F)(F)C(F)(F)F)n([C@H]3CCOC3)n2)nc2ncc(Oc3cnc4ccnn4c3)c(Cl)c21 [Example I-8, (S)-7-chloro-1-methyl-N-(5-(perfluoroethyl)-1-(tetrahydrofuran-3-yl)-1H-pyrazol-3-yl)-6-(pyrazolo[1,5-a]pyrimidin-6-yloxy)-1H-imidazo[4,5-b]pyridin-2-amine]",10 to 50 nM
2,Cn1c(Nc2cc(C(C)(C)C)n([C@@H]3CCOC3)n2)nc2ncc(Oc3cnc4[nH]cc(C#N)c4c3)cc21 [Example I-9],50 to 1000 nM
3,"Cn1c(Nc2cc(C(C)(C)C)n([C@H]3CCOC3)n2)nc2ncc(Oc3cnc4[nH]cc(C#N)c4c3)cc21 [Example I-10, (S)-5-((2-((5-(tert-butyl)-1-(tetrahydrofuran-3-yl)-1H-pyrazol-3-yl)amino)-1-methyl-1H-imidazo[4,5-b]pyridin-6-yl)oxy)-1H-pyrrolo[2,3-b]pyridine-3-carbonitrile]",1000 to 5000 nM
4,"Cn1c(Nc2cc(C(C)(C)C)n([C@H]3CCOC3)n2)nc2ncc(Oc3cnn4ccnc4c3)c(Cl)c21 [Example I-13, (S)—N-(5-(tert-butyl)-1-(tetrahydrofuran-3-yl)-1H-pyrazol-3-yl)-7-chloro-6-(imidazo[1,2-b]pyridazin-7-yloxy)-1-methyl-1H-imidazo[4,5-b]pyridin-2-amine]",10 to 50 nM
5,"Cn1c(Nc2cc(C(C)(C)C)n([C@@H]3CCOC3)n2)nc2ncc(Oc3cnn4ccnc4c3)c(Cl)c21 [Example I-14, (R)—N-(5-(tert-butyl)-1-(tetrahydrofuran-3-yl)-1H-pyrazol-3-yl)-7-chloro-6-(imidazo[1,2-b]pyridazin-7-yloxy)-1-methyl-1H-imidazo[4,5-b]pyridin-2-amine]",10 to 50 nM
6,"Cn1c(Nc2cc(C(C)(C)C)n([C@@H]3CCOC3)n2)nc2ncc(Oc3cnn4cnnc4c3)c(Cl)c21 [Example I-15, (R)-6-([1,2,4]triazolo[4,3-b]pyridazin-7-yloxy)-N-(5-(tert-butyl)-1-(tetrahydrofuran-3-yl)-1H-pyrazol-3-yl)-7-chloro-1-methyl-1H-imidazo[4,5-b]pyridin-2-amine]",50 to 1000 nM
7,"Cn1c(Nc2cc(C(C)(C)C)n([C@H]3CCOC3)n2)nc2ncc(Oc3cnn4cnnc4c3)c(Cl)c21 [Example I-16, (S)-6-([1,2,4]triazolo[4,3-b]pyridazin-7-yloxy)-N-(5-(tert-butyl)-1-(tetrahydrofuran-3-yl)-1H-pyrazol-3-yl)-7-chloro-1-methyl-1H-imidazo[4,5-b]pyridin-2-amine]",10 to 50 nM
8,"Cn1c(Nc2cc(C(C)(C)C#N)n([C@H]3CCOC3)n2)nc2ncc(Oc3cnc4ccnn4c3)c(Cl)c21 [Example I-17, (S)-2-(3-((7-chloro-1-methyl-6-(pyrazolo[1,5-a]pyrimidin-6-yloxy)-1H-imidazo[4,5-b]pyridin-2-yl)amino)-1-(tetrahydrofuran-3-yl)-1H-pyrazol-5-yl)-2-methylpropanenitrile]",10 to 50 nM
9,"Cn1c(Nc2cc(C(C)(C)C#N)n([C@@H]3CCOC3)n2)nc2ncc(Oc3cnc4ccnn4c3)c(Cl)c21 [Example I-18, (R)-2-(3-((7-chloro-1-methyl-6-(pyrazolo[1,5-a]pyrimidin-6-yloxy)-1H-imidazo[4,5-b]pyridin-2-yl)amino)-1-(tetrahydrofuran-3-yl)-1H-pyrazol-5-yl)-2-methylpropanenitrile]",10 to 50 nM
10,"CN1CC[C@H](n2nc(Nc3nc4ncc(Oc5cnc6sccc6c5)c(Cl)c4n3C)cc2C(C)(C)C)C1 [Example I-19, (S)—N-(5-(tert-butyl)-1-(1-methylpyrrolidin-3-yl)-1H-pyrazol-3-yl)-7-chloro-1-methyl-6-(thieno[2,3-b]pyridin-5-yloxy)-1H-imidazo[4,5-b]pyridin-2-amine]",10 to 50 nM
11,"CN1CC[C@@H](n2nc(Nc3nc4ncc(Oc5cnc6sccc6c5)c(Cl)c4n3C)cc2C(C)(C)C)C1 [Example I-20, (R)—N-(5-(tert-butyl)-1-(1-methylpyrrolidin-3-yl)-1H-pyrazol-3-yl)-7-chloro-1-methyl-6-(thieno[2,3-b]pyridin-5-yloxy)-1H-imidazo[4,5-b]pyridin-2-amine]",50 to 1000 nM
12,"Cn1c(Nc2cc(C(C)(C)C)n([C@H]3CCN(CCF)C3)n2)nc2ncc(Oc3cnn4ccnc4c3)c(Cl)c21 [Example I-25, (S)—N-(5-(tert-butyl)-1-(1-(2-fluoroethyl)pyrrolidin-3-yl)-1H-pyrazol-3-yl)-7-chloro-6-(imidazo[1,2-b]pyridazin-7-yloxy)-1-methyl-1H-imidazo[4,5-b]pyridin-2-amine]",10 to 50 nM
13,"Cn1c(Nc2cc(C(C)(C)C)n([C@@H]3CCN(CCF)C3)n2)nc2ncc(Oc3cnn4ccnc4c3)c(Cl)c21 [Example I-26, (R)—N-(5-(tert-butyl)-1-(1-(2-fluoroethyl)pyrrolidin-3-yl)-1H-pyrazol-3-yl)-7-chloro-6-(imidazo[1,2-b]pyridazin-7-yloxy)-1-methyl-1H-imidazo[4,5-b]pyridin-2-amine]",50 to 1000 nM
14,"CN1CC[C@@H](n2nc(Nc3nc4ncc(Oc5cnc6scnc6c5)c(Cl)c4n3C)cc2C(C)(C)C)C1 [Example I-27, (R)—N-(5-(tert-butyl)-1-(1-methylpyrrolidin-3-yl)-1H-pyrazol-3-yl)-7-chloro-1-methyl-6-(thiazolo[5,4-b]pyridin-6-yloxy)-1H-imidazo[4,5-b]pyridin-2-amine]",10 to 50 nM
15,"CN1CC[C@H](n2nc(Nc3nc4ncc(Oc5cnc6scnc6c5)c(Cl)c4n3C)cc2C(C)(C)C)C1 [Example I-28, (S)—N-(5-(tert-butyl)-1-(1-methylpyrrolidin-3-yl)-1H-pyrazol-3-yl)-7-chloro-1-methyl-6-(thiazolo[5,4-b]pyridin-6-yloxy)-1H-imidazo[4,5-b]pyridin-2-amine]",10 to 50 nM

# Now from value to compound:
row,Kd,Structure (SMILES)
1,10 to 50 nM,"Cn1c(Nc2cc(C(C)(C)C)n([C@@H]3CCOC3)n2)nc2ncc(Oc3cnc4[nH]c(C5CC5)cc4c3)cc21 [Example I-1, (R)—N-(5-(tert-butyl)-1-(tetrahydrofuran-3-yl)-1H-pyrazol-3-yl)-6-((2-cyclopropyl-1H-pyrrolo[2,3-b]pyridin-5-yl)oxy)-1-methyl-1H-imidazo[4,5-b]pyridin-2-amine]"
2,10 to 50 nM,"Cn1c(Nc2cc(C(C)(C)C)n([C@H]3CCOC3)n2)nc2ncc(Oc3cnc4[nH]c(C5CC5)cc4c3)cc21 [Example I-2, (S)—N-(5-(tert-butyl)-1-(tetrahydrofuran-3-yl)-1H-pyrazol-3-yl)-6-((2-cyclopropyl-1H-pyrrolo[2,3-b]pyridin-5-yl)oxy)-1-methyl-1H-imidazo[4,5-b]pyridin-2-amine]"
3,< 10 nM,Cc1n[nH]c2ncc(Oc3cnc4nc(Nc5cc(C(C)(C)C)n([C@@H]6CCOC6)n5)n(C)c4c3)cc12 [Example I-3]
4,< 10 nM,"Cc1n[nH]c2ncc(Oc3cnc4nc(Nc5cc(C(C)(C)C)n([C@H]6CCOC6)n5)n(C)c4c3)cc12 [Example I-4, (S)—N-(5-(tert-butyl)-1-(tetrahydrofuran-3-yl)-1H-pyrazol-3-yl)-1-methyl-6-((3-methyl-1H-pyrazolo[3,4-b]pyridin-5-yl)oxy)-1H-imidazo[4,5-b]pyridin-2-amine]"
5,10 to 50 nM,"Cc1cc2ncc(Oc3cnc4nc(Nc5cc(C(C)(C)C)n([C@@H]6CCOC6)n5)n(C)c4c3Cl)cn2n1 [Example I-5, (R)—N-(5-(tert-butyl)-1-(tetrahydrofuran-3-yl)-1H-pyrazol-3-yl)-7-chloro-1-methyl-6-((2-methylpyrazolo[1,5-a]pyrimidin-6-yl)oxy)-1H-imidazo[4,5-b]pyridin-2-amine]"
6,10 to 50 nM,"Cc1cc2ncc(Oc3cnc4nc(Nc5cc(C(C)(C)C)n([C@H]6CCOC6)n5)n(C)c4c3Cl)cn2n1 [Example I-6, (S)—N-(5-(tert-butyl)-1-(tetrahydrofuran-3-yl)-1H-pyrazol-3-yl)-7-chloro-1-methyl-6-((2-methylpyrazolo[1,5-a]pyrimidin-6-yl)oxy)-1H-imidazo[4,5-b]pyridin-2-amine]"
7,10 to 50 nM,"Cn1c(Nc2cc(C(F)(F)C(F)(F)F)n([C@@H]3CCOC3)n2)nc2ncc(Oc3cnc4ccnn4c3)c(Cl)c21 [Example I-7, (R)-7-chloro-1-methyl-N-(5-(perfluoroethyl)-1-(tetrahydrofuran-3-yl)-1H-pyrazol-3-yl)-6-(pyrazolo[1,5-a]pyrimidin-6-yloxy)-1H-imidazo[4,5-b]pyridin-2-amine]"
8,< 10 nM,COCc1c[nH]c2ncc(Oc3cnc4nc(Nc5cc(C(C)(C)C)n([C@@H]6CCOC6)n5)n(C)c4c3)cc12 [Example I-11]
9,< 10 nM,COCc1c[nH]c2ncc(Oc3cnc4nc(Nc5cc(C(C)(C)C)n([C@H]6CCOC6)n5)n(C)c4c3)cc12 [Example I-12]
10,< 10 nM,"Cn1c(Nc2cc(C(C)(C)C)n([C@@H]3CCOC3)n2)nc2ncc(Oc3cnn4ccncc34)c(Cl)c21 [Example I-21, (R)—N-(5-(tert-butyl)-1-(tetrahydrofuran-3-yl)-1H-pyrazol-3-yl)-7-chloro-1-methyl-6-(pyrazolo[1,5-a]pyrazin-3-yloxy)-1H-imidazo[4,5-b]pyridin-2-amine]"
11,< 10 nM,"Cn1c(Nc2cc(C(C)(C)C)n([C@H]3CCOC3)n2)nc2ncc(Oc3cnn4ccncc34)c(Cl)c21 [Example I-22, (S)—N-(5-(tert-butyl)-1-(tetrahydrofuran-3-yl)-1H-pyrazol-3-yl)-7-chloro-1-methyl-6-(pyrazolo[1,5-a]pyrazin-3-yloxy)-1H-imidazo[4,5-b]pyridin-2-amine]"
12,< 10 nM,"Cn1c(Nc2cc(C(C)(C)C)n([C@H]3CCN(CCF)C3)n2)nc2ncc(Oc3cnn4ccncc34)c(Cl)c21 [Example I-29, (S)—N-(5-(tert-butyl)-1-(1-(2-fluoroethyl)pyrrolidin-3-yl)-1H-pyrazol-3-yl)-7-chloro-1-methyl-6-(pyrazolo[1,5-a]pyrazin-3-yloxy)-1H-imidazo[4,5-b]pyridin-2-amine]"
13,< 10 nM,"Cn1c(Nc2cc(C(C)(C)C)n([C@@H]3CCN(CCF)C3)n2)nc2ncc(Oc3cnn4ccncc34)c(Cl)c21 [Example I-30, (R)—N-(5-(tert-butyl)-1-(1-(2-fluoroethyl)pyrrolidin-3-yl)-1H-pyrazol-3-yl)-7-chloro-1-methyl-6-(pyrazolo[1,5-a]pyrazin-3-yloxy)-1H-imidazo[4,5-b]pyridin-2-amine]"
